Source: patent US5116877A, “Pharmaceutical use for cinnamamide derivatives” (Taisho Pharmaceutical Co., Ltd., priority 1989, dated 1992)

Legend:
[1] = J. Med. Chem., vol. 9 (No. 5), 675-681 (1966); cited from earlier work
[2] = tested on: Anemic Decerebrate rigidity; test: Inhibition of anemic decerebrate rigidity; type: in vivo, male Wistar rats; settings: rat, in polyethylene glycol 400
Description: Experiment 2[Inhibition of Anemic Decerebrate rigidity]
The rigidity animals were prepared according to the method of Fukuda et al [Japan J. Pharmacol., vol. 24, page 810-813 (1974)].
Four male Wistar rats weighing 250 to 350 g were used for each group.
The animals were anesthetized with ethyl ether and carotid artery was ligated bilaterally. A round hole was digged in the suboccipital skeleton and the basal artery was coagulated using a bipolar electrocoagulator. The advanced rigidity occurred on the fore limb with awaking from the ethyl ether anesthesia. The drugs [A; (E)-N-cyclopropyl-3-(3-chlorophenyl)-2-butenamide, B; (E)-N-cyclopropyl-3-(3-fluorophenyl)-2-butenamide, and C; cinflumide] dissolved in polyethylene glycol 400 were each administered intravenously in the amount of 5 mg/kg or 10 mg/kg (0.1 ml per 100 g of rat) to determine the inhibition time of the rigidity.

Acute toxicity test = type: in vivo, male ICR mice; settings: mouse
Description: Experiment 5 [Acute toxicity test]
Ten male ICR mice weighing 25 to 34 g were used. (E)-N-cyclopropyl-3-(3-chlorophenyl)-2-butenamide suspended in 0.4% aqueous carboxymethylcellulose solution was each administered orally to mice in the amount of 0.1 ml per 10 g of mice. […] The LD50 values were more than 1 g/kg p.o.

[3] = tested on: mesocephalous decerebrate rididity; test: Inhibition test of the mesocephalous decerebrate rigidity; type: in vivo, male Wistar rats; settings: rat
Description: Experiment 1 [Inhibition test of the mesocephalous decerebrate rididity]
The rigidity animals were prepared according to the method of Ono et al [Gen. Pharm., vol. 18, page 57-59 (1987)].
Four male Wistar rats weighing 250 to 350 g were used for each group. The animals were anesthetized with ethyl ether and fixed on a brain stereotaxic apparatus to break the midbrain bilaterally (APO, V-3, L ±1.5). The advanced rigidity occurred in the hind limb with awaking from the ethyl ether anesthesia. The test drugs [A; (E)-N-cyclopropyl-3-(3-chlorophenyl)-2-butenamide, B; (E)-N-cyclopropyl-3-(3-fluorophenyl)-2-butenamide and C; cinflumide] dissolved in propylene glycol were each administered intravenously in the amount of 5 mg/kg or 10 mg/kg (0.1 ml per 100 g of rat), and these test drugs suspended in 0.4% aqueous carboxymethylcellulose solution were each administered intraduodenally in the amount of 50 mg/kg (0.1 ml per 100 g of rat) to determine the inhibition time of the rigidity.

Straub tail reaction = Straub tail reaction (morphine-induced); type: in vivo, male ICR mice; settings: mouse, morphine hydrochloride 15 mg/kg s.c.
Description: Experiment 3 [Straub tail reaction]
Test was carried out according to the method of Ellis et al [Neuropharmacology, vol. 13, page 211 to (1974)].
Six male ICR mice weighing 20-30 g were used as the animals for each group. The drugs [A; (E)-N-cyclopropyl-3-(3-chlorophenyl)-2-butenamide, and C; cinflumide] suspended in 0.4% aqueous carboxymethylcellulose solution were each administered orally to the animals in the amounts of 50, 70.7, 100 and 140 mg/kg (0.1 ml per 10 g of mouse). After 15 minutes, 15 mg/kg of morphine hydrochloride were administered subcutaneously. After 30 minutes, the tail-raising reaction was determined. The muscle relaxation activity was judged as positive in case where the drug produces the value of less than 45 degrees of the tail-raising's angle, and the inhibition rate was culculated.

[4] = tested on: spontaneous motor activity; test: Spontaneous motor activity test; type: in vivo, male ICR mice; settings: mouse
Description: Experiment 4 [Spontaneous motor activity test]
Six male ICR mice weighing 20-30 g were used as the test animals for each group. The test drugs [A: (E)-N-cyclopropyl-3-(3 chlorophenyl)-2-butenamide and B: (E)-N-cyclopropyl-3-(3-fluorophenyl)-2-butenamide] suspended in 0.4% aqueous carboxymethylcellulose solution were each administered orally to mice in the amounts of 50, 70.7 and 100 mg/kg (0.1 ml per 10 g of mouse). The control group were administered with 0.4% aqueous carboxymethylcellulose solution only. After 15 minute, mice were placed in ANIMEX apparatus (manufactured by Muromachi Kikai K.K.) to determine the spontaneous moter activity for 30 minutes

[5] = Japanese Patent Publication No. 60-56700; among known cinnamamide derivatives; cited from earlier work
[6] = 5 mg/kg i.v., in propylene glycol
[7] = 10 mg/kg i.v., in propylene glycol
[8] = 50 mg/kg i.d., in 0.4% aqueous carboxymethylcellulose
[9] = 50 mg/kg (head: i.v.; text: orally)
[10] = 70.7 mg/kg (head: i.v.; text: orally)
[11] = 100 mg/kg (head: i.v.; text: orally)
[12] = 140 mg/kg (head: i.v.; text: orally)
[13] = 70.7 mg/kg p.o., control of A 2116.0 ± 256.6, of B 2128.7 ± 228.0

SMILES | sedative or taming action [1] | length of time during which the inhibition occurs (inhibition time of the rigidity) ([2]; 5 mg/kg i.v.) [min] | length of time during which the inhibition occurs (inhibition time of the rigidity) ([2]; 10 mg/kg i.v.) [min] | death (survivals observed for 7 days) (Acute toxicity test; 1 g/kg p.o.) | LD50 at 168 h (Acute toxicity test; in vivo, po) [mg/kg] | length of time during which the inhibition action occurs (inhibition time of the rigidity) [3, 6] [min] | length of time during which the inhibition action occurs (inhibition time of the rigidity) [3, 7] [min] | length of time during which the inhibition action occurs (inhibition time of the rigidity) [3, 8] [min] | inhibition rate (Straub tail reaction) (Straub tail reaction; [9]) [%] | inhibition rate (Straub tail reaction) (Straub tail reaction; [10]) [%] | inhibition rate (Straub tail reaction) (Straub tail reaction; [11]) [%] | inhibition rate (Straub tail reaction) (Straub tail reaction; [12]) [%] | Spontaneous motor activity ([4]; 50 mg/kg p.o., control of A 2116.0 ± 256.6) [Counts/30 minutes] | Spontaneous motor activity [4, 13] [Counts/30 minutes] | Spontaneous motor activity ([4]; 100 mg/kg p.o., control of B 2128.7 ± 228.0) [Counts/30 minutes] | muscle relaxing activity [5]
C/C(=C\C(=O)NC1CC1)c1cccc(Cl)c1 [A, (E)-N-cyclopropyl-3-(3-chlorophenyl)-2-butenamide] | showing sedative or taming action | 9 | 13 | no death occurred | > 1000 | 13 | 37 | 36 | 40 | 40 | 100 | 100 | 1736.0 ± 366.6 | 1570.2 ± 326.9 | – | –
C/C(=C\C(=O)NC1CC1)c1cccc(F)c1 [B, (E)-N-cyclopropyl-3-(3-fluorophenyl)-2-butenamide] | – | 8 | 12 | – | – | 6 | 12 | 53 | – | – | – | – | – | 2264.2 ± 506.0 | 1667.8 ± 152.4 | –
O=C(/C=C/c1cccc(F)c1)NC1CC1 [C, cinflumide, reference compound] | – | – | 8 | – | – | 0 | 3 | 0 | 0 | 20 | 80 | 100 | – | – | – | most preferred effect
